Measurements taken from ChEMBL document CHEMBL1201862, “PubChem BioAssay data set” (2004).
“And” between values parts separate entries of the source, which are not always exact repeats. Equal entries are not always repeated. The source made the active and inactive calls.

What was measured:
Escherichia coli [1] = test: microbe, parasite or virus in culture
[2] = cytotoxicity in KRAS-transformed pancreatic duct cells, primary screen, cell-based, fluorescence, HTS (AID 431); type: functional; conditions: Homo sapiens;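 further: cell line used: HPDE-C7K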
[3] = cytotoxicity in HPDE-C7 cells, cell-based, fluorescence, HTS (AID 430); type: functional; conditions: Homo sapiens
Escherichia coli [4] = test: microbe, parasite or virus in culture; remark: listed apart in the source
Cysteine protease ATG4B = molecular target: T1, Cysteine protease ATG4B (Homo sapiens, UniProt Q9Y4P1); test: ATG4B protease inhibitors, dose response, biochemical, fluorescence, set 2 (AID 588584); type: functional
T1 sequence (Q9Y4P1 whole entry): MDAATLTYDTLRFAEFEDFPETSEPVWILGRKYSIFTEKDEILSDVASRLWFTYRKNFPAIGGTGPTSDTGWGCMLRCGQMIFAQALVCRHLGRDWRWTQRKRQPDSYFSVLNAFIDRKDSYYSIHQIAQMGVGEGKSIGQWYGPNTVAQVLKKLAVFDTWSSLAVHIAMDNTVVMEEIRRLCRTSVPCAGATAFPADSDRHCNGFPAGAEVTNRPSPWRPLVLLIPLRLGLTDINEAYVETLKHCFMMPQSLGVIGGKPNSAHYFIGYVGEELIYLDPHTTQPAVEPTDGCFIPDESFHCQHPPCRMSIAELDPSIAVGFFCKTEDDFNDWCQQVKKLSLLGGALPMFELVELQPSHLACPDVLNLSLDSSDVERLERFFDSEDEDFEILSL

cells [5] = type: functional, cell-based
Streptococcus = test: Group A Streptococcus viability loss, dose response, counter-screen for streptokinase expression inhibitor project, luminescence, BacTiterGlo (AID 1915); type: functional, organism-based;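 further: potency for reduction of bacterial viability or growth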
[6] = tested on: Streptococcus sp. 'group A'; test: growth inhibition of control SK(-) GAS strain, dose response, counter-screen for streptokinase expression inhibitor project, luminescence, kanamycin, BacTiterGlo, confirmation (AID 1900); type: functional, organism-based
[7] = molecular target: ATP-dependent molecular chaperone HSP82 (Candida albicans (strain WO-1) (Yeast), UniProt C4YTQ8); test: loss of DOC-induced GRE-beta-galactosidase reporter signal, dose response, Hsp90 inhibitor project, S. cerevisiae, luminescence (AID 2400); type: functional, cell-based;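 further: beta-galactosidase luminescence from glucocorticoid response element reporter as proxy for Hsp90 function; inhibitor potency where signal loss means Hsp90 inhibition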
cells [8] = type: functional, cell-based; remark: listed apart in the source
[9] = NIH-3T3 fibroblast cytotoxicity, dose response, cytotoxicity control, cell-based, fluorescence, Alamar Blue, secondary assay (AID 2327); type: functional;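 further: NIH-3T3 mouse fibroblasts cultured with fluconazole at 8 µg/mL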
INS1 = test: beta cell apoptosis inhibitors, cytokine rescue, dose response, luminescence, retest (AID 449756); type: functional, cell-based; conditions: Rattus norvegicus;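 further: cell death triggered by IL-1 beta plus TNF-alpha plus IFN-gamma mixture; protective hits raise ATP signal compared with cytokine alone wells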
[10] = molecular target: T2, Serine/threonine-protein phosphatase (Candida dubliniensis (strain CD36 / CBS 7987 / NCPF 3949 / NRRLY-17841) (Yeast), UniProt B9W6M3); test: calcineurin pathway inhibitors in yeast reporter, dose response, S. cerevisiae, CDRE-lacZ, luminescence, secondary (AID 2388); type: functional, cell-based;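 further: yeast reporter cells carrying a calcineurin-responsive lacZ construct stimulated with calcium chloride; luminescent beta-galactosidase reporter signal in whole cells rather than isolated phosphatase activity; potency for inhibition where a drop in reporter signal means calcineurin blockade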
T2 sequence (B9W6M3 whole entry): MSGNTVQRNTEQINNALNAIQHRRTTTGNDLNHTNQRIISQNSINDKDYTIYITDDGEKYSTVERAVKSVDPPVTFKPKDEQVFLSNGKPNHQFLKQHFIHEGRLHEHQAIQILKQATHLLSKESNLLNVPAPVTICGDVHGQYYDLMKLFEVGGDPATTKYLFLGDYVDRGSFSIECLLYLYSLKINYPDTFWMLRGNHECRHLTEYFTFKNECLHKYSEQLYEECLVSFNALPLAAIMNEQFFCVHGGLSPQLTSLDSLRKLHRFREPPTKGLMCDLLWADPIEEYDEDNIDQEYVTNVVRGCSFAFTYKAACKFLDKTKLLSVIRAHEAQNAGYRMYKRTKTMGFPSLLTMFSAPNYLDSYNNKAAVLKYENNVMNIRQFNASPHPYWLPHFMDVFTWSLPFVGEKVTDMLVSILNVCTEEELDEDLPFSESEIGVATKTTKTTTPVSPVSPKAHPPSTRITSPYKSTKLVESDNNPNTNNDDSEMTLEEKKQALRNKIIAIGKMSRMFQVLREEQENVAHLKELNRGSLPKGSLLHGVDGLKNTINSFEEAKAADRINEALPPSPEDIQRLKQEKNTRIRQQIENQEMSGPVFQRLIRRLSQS

Cytochrome P450 2D6 = Cytochrome P450 2D6 (Homo sapiens, UniProt P10635);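 further: CYP2D6 member of a cytochrome P450 panel assay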
Phospholipase A2 = Phospholipase A2 (Homo sapiens, UniProt P04054); test: PLA2 enzyme inhibitors, dose response, counter-screen for ATG4B inhibitor project, biochemical, set 2 (AID 588586); type: functional
[11] = molecular target: T3, Microphthalmia-associated transcription factor (Homo sapiens, UniProt O75030); test: TRPM1 promoter luciferase signal decrease, dose response, MITF inhibitor project, cell-based, SK-MEL-5, cherry-picked, set 3 (AID 493073); type: functional
T3 sequence (O75030 whole entry): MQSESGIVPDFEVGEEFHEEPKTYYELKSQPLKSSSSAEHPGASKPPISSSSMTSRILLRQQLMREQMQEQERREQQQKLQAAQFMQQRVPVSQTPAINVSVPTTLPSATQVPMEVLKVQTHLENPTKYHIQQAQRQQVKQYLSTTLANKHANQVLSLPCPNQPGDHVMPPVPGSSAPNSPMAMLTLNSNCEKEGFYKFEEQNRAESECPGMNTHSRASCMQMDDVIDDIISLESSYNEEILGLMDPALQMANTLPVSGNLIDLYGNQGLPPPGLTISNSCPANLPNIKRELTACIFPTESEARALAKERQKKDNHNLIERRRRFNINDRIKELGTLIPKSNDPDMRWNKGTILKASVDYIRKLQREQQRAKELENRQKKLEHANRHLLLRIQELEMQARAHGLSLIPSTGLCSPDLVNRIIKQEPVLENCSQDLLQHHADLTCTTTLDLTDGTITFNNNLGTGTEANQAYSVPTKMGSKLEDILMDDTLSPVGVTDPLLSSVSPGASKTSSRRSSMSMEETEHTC

[12] = Luminescence Cell-Based Dose Retest to Confirm Inhibitors of Cancer Stem Cells. [Related pubchem assays (depositor defined):AID2717, AID2721]; type: functional; conditions: Homo sapiens
[13] = C. albicans growth with fluconazole, confirmation, fluorescence, retest (AID 2467); type: functional, cell-based
HEK293 [14] = test: cells; type: functional, cell-based; conditions: Homo sapiens
HEK293 [15] = test: NOD2 signaling inhibitors in MDP-stimulated cells, cell-based, uHTS, luminescence (AID 2001); type: functional; conditions: Homo sapiens
HEK293 [16] = test: cells; conditions: Homo sapiens
HEK293 [17] = test: cells; type: functional, cell-based; conditions: Homo sapiens; remark: listed apart in the source
Tumor necrosis factor = Tumor necrosis factor (Homo sapiens, UniProt P01375); test: TNFa-triggered NF-kB activation inhibitors, SAR follow-up, cell-based, revised (AID 2337); type: functional
[18] = control 3'UTR Renilla luciferase suppression, dose response, counter-screen for Shn3 inhibitor project, cell-based, Clone20-Shn3RL, cherry-picked (AID 624133); type: functional
[19] = molecular target: Nucleotide-binding oligomerization domain-containing protein 2 (Homo sapiens, UniProt Q9HC29); test: NOD2 signaling inhibitors, cell-based, luminescence, uHTS, HEK293 (AID 1566); type: functional
[20] = cytotoxicity in HEK-293T NF-kB-Luc cells, dose response, cytotoxicity control for B/T-cell NF-kB inhibitor project, cell-based, uHTS hits (AID 489019); type: functional;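 further: IC50 reflects cytotoxicity as loss of cell viability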
Jurkat = test: antigen receptor-induced NF-kB inhibitors, dose response, Jurkat, luciferase reporter, luminescence, B- and T-cell (AID 489004); type: functional, cell-based; conditions: Homo sapiens;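 further: NF-kB luciferase reporter Jurkat cells stimulated with PMA plus ionomycin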
[21] = molecular target: T4, Nucleotide-binding oligomerization domain-containing protein 1 (Homo sapiens, UniProt Q9Y239); test: NOD1 signaling inhibitors, SAR follow-up, revised (AID 2333); type: functional
T4 sequence (Q9Y239 whole entry): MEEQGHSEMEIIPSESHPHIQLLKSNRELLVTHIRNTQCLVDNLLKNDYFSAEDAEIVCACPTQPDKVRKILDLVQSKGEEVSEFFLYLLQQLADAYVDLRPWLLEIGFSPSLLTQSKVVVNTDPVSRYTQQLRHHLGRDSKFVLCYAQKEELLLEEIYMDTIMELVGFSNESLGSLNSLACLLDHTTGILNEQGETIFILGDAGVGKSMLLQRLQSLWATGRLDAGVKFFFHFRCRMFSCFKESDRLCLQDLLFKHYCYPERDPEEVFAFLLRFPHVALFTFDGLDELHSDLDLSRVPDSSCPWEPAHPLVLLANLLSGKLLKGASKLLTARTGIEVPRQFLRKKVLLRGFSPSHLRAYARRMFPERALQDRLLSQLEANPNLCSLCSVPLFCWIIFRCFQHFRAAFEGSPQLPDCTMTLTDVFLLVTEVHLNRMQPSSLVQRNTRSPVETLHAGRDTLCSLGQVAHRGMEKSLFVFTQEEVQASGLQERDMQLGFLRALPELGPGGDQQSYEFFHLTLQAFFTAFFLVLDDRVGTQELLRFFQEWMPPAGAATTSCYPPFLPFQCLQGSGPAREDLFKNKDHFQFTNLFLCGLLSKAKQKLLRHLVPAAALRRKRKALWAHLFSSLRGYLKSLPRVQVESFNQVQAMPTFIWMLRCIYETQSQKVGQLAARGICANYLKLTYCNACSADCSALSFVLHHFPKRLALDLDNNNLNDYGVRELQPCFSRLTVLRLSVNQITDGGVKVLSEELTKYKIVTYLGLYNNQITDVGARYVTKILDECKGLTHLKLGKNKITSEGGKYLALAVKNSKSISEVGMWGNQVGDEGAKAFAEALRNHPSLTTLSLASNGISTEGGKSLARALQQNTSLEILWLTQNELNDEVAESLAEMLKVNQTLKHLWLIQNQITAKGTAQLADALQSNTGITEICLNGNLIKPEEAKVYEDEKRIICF

[22] = Shn3 3'UTR reporter inhibitors, dose response, cell-based, Clone20 osteoblasts, firefly luciferase, cherry-picked (AID 624132); type: functional;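 further: firefly luciferase luminescence from reporter carrying the Shn3 3'UTR in osteoblasts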
[23] = HepG2 cell cytotoxicity, dose response, cytotoxicity control for Shn3 inhibitor project, CellTiter-Glo, cherry-picked (AID 624134); type: functional, cell-based
HEK293 [24] = test: NOD1 signaling inhibitors, primary screen, cell-based, luminescence, uHTS (AID 1578); type: functional; conditions: Homo sapiens
[25] = molecular target: T5, COUP transcription factor 2 (Homo sapiens, UniProt P24468); test: Luminescence-based cell-based high throughput dose response assay to identify inhibitors of COUP-TFII (NR2F2).; type: functional;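 further: HEK293 cells transiently cotransfected with COUP-TFII expression vector and reporter; luciferase reporter luminescence driven by COUP-TFII from the pX2-168 reporter plasmid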
T5 sequence (P24468 whole entry): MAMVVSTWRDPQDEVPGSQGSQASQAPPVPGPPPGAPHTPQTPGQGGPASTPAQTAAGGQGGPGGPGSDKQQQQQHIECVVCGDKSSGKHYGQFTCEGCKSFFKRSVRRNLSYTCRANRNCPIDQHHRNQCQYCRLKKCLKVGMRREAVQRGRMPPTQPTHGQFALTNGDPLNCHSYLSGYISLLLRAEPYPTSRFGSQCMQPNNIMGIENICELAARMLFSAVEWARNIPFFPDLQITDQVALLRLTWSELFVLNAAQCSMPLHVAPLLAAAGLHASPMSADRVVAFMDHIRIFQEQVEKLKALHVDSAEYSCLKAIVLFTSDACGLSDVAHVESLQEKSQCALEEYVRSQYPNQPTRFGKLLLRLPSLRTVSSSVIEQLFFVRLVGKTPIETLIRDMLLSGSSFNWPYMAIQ

HEK293 [26] = test: cells; type: functional, cell-based; conditions: Homo sapiens; remark: listed apart in the source

Sequence of Tumor necrosis factor (P01375 whole entry): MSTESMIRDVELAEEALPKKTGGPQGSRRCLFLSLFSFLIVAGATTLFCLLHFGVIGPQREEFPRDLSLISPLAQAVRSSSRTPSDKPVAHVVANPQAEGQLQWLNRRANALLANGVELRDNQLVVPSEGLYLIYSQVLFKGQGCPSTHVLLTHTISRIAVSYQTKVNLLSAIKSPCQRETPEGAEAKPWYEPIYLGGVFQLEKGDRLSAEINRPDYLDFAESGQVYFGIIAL
Sequence of ATP-dependent molecular chaperone HSP82 (C4YTQ8 whole entry): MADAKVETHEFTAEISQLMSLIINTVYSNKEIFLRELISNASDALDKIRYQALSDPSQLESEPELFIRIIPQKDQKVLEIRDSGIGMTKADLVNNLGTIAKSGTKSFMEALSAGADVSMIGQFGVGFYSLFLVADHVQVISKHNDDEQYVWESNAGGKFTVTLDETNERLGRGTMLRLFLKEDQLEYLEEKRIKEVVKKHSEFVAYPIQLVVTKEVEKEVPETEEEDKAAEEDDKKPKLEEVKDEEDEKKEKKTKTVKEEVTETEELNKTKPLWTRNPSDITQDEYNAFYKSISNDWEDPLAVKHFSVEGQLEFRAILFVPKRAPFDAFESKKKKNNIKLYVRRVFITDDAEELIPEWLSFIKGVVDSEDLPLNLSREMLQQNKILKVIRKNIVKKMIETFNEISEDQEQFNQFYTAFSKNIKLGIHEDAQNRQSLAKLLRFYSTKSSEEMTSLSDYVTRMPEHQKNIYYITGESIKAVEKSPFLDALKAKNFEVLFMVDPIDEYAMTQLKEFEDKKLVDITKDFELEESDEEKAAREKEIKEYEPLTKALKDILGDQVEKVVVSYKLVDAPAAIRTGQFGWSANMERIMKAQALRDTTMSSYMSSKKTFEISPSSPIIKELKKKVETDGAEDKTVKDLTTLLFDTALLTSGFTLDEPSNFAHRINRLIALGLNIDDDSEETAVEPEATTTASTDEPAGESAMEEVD
Sequence of Nucleotide-binding oligomerization domain-containing protein 2 (Q9HC29 whole entry, the tested form may be a part): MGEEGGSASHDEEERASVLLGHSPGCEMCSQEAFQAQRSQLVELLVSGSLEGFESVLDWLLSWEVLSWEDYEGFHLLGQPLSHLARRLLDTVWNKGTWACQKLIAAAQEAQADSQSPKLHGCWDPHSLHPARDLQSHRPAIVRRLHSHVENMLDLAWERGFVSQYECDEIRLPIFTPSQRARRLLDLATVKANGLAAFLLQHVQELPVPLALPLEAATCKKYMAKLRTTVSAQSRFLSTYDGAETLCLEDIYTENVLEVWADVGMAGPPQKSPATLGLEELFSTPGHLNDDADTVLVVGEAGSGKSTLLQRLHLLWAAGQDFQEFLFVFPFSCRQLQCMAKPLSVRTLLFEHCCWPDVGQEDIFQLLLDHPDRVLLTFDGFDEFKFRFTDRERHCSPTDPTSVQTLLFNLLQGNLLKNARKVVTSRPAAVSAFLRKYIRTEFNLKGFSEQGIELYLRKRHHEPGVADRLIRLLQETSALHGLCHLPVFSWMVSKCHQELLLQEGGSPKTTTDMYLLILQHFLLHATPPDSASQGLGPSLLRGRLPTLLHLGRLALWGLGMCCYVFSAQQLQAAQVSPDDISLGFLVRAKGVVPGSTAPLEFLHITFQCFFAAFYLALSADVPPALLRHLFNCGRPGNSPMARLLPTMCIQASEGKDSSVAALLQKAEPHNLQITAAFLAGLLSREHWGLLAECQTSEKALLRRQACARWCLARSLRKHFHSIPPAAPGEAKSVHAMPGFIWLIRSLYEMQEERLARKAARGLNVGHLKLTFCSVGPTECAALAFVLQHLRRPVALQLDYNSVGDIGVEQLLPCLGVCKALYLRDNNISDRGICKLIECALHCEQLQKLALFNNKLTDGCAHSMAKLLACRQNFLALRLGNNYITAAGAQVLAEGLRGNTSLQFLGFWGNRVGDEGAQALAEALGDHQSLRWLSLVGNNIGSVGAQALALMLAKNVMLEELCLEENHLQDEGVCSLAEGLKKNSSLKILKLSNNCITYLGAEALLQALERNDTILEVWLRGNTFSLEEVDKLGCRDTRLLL
Sequence of Phospholipase A2 (P04054 whole entry): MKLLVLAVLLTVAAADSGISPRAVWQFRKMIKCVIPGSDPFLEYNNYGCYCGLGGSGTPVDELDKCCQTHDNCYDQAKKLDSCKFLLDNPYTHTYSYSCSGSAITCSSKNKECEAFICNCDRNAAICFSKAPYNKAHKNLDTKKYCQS
Sequence of Cytochrome P450 2D6 (P10635 whole entry): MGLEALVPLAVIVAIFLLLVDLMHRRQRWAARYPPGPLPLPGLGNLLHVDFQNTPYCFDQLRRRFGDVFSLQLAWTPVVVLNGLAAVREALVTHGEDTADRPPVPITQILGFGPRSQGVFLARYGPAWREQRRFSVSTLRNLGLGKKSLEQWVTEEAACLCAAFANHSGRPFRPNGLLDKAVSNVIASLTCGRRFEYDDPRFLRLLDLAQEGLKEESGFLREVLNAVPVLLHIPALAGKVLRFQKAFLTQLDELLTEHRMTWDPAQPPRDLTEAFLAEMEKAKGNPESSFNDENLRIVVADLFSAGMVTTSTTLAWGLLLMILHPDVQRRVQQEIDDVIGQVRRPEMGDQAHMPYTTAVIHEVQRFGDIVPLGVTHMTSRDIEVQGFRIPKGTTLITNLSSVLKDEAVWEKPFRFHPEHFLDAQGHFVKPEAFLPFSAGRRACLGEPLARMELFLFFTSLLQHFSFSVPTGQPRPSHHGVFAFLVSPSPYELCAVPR

## COC(=O)c1c(NC(=O)C(=O)NCCCN2CCOCC2)sc2c1CCCC2
Escherichia coli [1]
  AC50: 19.8 µM (active)

## CCOC(=O)CC(=O)Nc1ccccc1C(=O)O
Escherichia coli [1]
  AC50: 27 µM (active)

## CC(C)CCNC(=O)c1c(N)n(CC2CCCO2)c2nc3ccccc3nc12 (stereo unspecified)
[2]
  EC50: 13.6 µM (active)
[3]
  EC50: 13.2 µM (active)
Escherichia coli [4]
  AC50: 16.3 µM (active)

## Cc1c(Cl)c([N+](=O)[O-])nn1Cc1ccc(C(=O)N/N=C\c2cc(Cl)ccc2O)o1
Cysteine protease ATG4B
  IC50: 21 µM (inactive)
Cells [5]
  EC50: 89 µM (active)
Streptococcus
  EC50: 2.38 µM (active)
[6]
  EC50: 2.03 µM (active)
[7]
  EC50: 29.5 µM (active)
Cells [8]
  EC50: 9.68 µM (active)
[9]
  EC50: > 160 µM (inactive)
INS1
  AC50: 1.67 µM (active)
[10]
  EC50: > 180 µM (inactive)
Cytochrome P450 2D6
  AC50: 11.2 µM (inconclusive)
Phospholipase A2
  IC50: 5.5 µM (active)
[11]
  AC50: 3.47 µM (active)
[12]
  AC50: 3.28 µM (active)
[13]
  EC50: 754 nM (active)

## Cn1nccc1C(=O)NC1CCCc2c1cnn2-c1ccccc1F (stereo unspecified)
HEK293 [14]
  IC50: > 20 µM (inactive)
HEK293 [15]
  IC50: 2.71 µM (active)
HEK293 [16]
  IC50: > 20 µM (inactive)
HEK293 [17]
  IC50: 13.8 µM (active)
Tumor necrosis factor
  IC50: 4.28 µM (active) and 14.6 µM (active)
[18]
  AC50: 3.96 µM (active)
INS1
  AC50: 2.26 µM (active)
[19]
  EC50: 610 nM (active)
[20]
  IC50: > 80 µM (inactive)
Jurkat
  IC50: > 80 µM (inactive)
[21]
  IC50: 968 nM (active) and 825 nM (active)
[22]
  AC50: 370 nM (active)
[23]
  AC50: 472 nM (active)
HEK293 [24]
  EC50: 620 nM (active)
[25]
  IC50: 1.51 µM (active)
HEK293 [26]
  IC50: 2.36 µM (active)

## CC(C)Cc1ccc(CN2CCCC(NC(=O)Cn3cnnn3)C2)cc1 (stereo unspecified)
Escherichia coli [4]
  AC50: 103 µM (active)
